# Laboratory results published in paper PMC8691714 (Cancer Research Communications, 2021).
# Key:
# [1] = set-up: method as in earlier work; details: PBPK model parameter, ref [17, 18] and Drugbank, cited from earlier work
# [2] = set-up: method as in earlier work; details: PBPK model parameter, ref [17, 18] and Drugbank, cited from earlier work; remark: listed apart in the source
# TMD8 cells = test: MTT viability assay, TMD8 cells, 72 hours; type: cell-based, human
# Procedure: Cell viability was assessed after 72 hours of incubation.
# [3] = set-up: method as in earlier work; details: PBPK model parameter, ref [17, 18] and Drugbank, cited from earlier work; remark: listed apart in the source
# BTK = test: Immunoblotting of BTK signaling in primary CLL cells; type: cell-based, human; details: ibrutinib 1 μmol/L with cobicistat 1, 10 μmol/L
# Procedure: Blood was drawn from patients with newly diagnosed, untreated CLL after receipt of written informed consent under a protocol approved by the Institutional Review Board of The Ohio State University (Columbus, OH) in accordance with the Declaration of Helsinki. B cells were isolated from whole blood using Rosette-Sep B (StemCell Technologies). Primary CLL cells were cultured in RPMI1640 medium supplemented with 10% FBS, 100 U/mL penicillin, 100 μg/mL streptomycin, and 2 mmol/L […]. […] After 1 hour, the cells were pelleted and resuspended in fresh media. For experiments with extended drug exposure, DMSO and cobicistat were added again after washout.
# After 15 minutes of stimulation, cell lysates were collected and analyzed by SDS-PAGE. Protein was transferred to nitrocellulose and blots were probed with primary antibodies and horseradish peroxidase (HRP)-conjugated secondary antibodies. Blots were imaged using WesternBright chemiluminescent substrate (Advansta) on an X-ray film. Phosphorylated proteins were analyzed first, then antibodies were removed using Western Blot Stripping Buffer (Thermo Fisher Scientific) before analyzing total protein. Membranes were stripped after imaging total proteins before analyzing loading control. […] Loading controls were assessed for each membrane and are presented with corresponding proteins analyzed on the same membrane.
compound,measurement,setting,value
CC(C)c1nc(CN(C)C(=O)N[C@@H](CCN2CCOCC2)C(=O)N[C@H](CC[C@H](Cc2ccccc2)NC(=O)OCc2cncs2)Cc2ccccc2)cs1 [Cobicistat],pKa,[1]; acid dissociation constant,6.69
same,Log Po:w,[1]; octanol/water partition coefficient,4.36
same,B/P ratio,[2]; blood to plasma ratio,0.55
same,"fu, plasma",[2]; unbound drug in the plasma,0.020
same,influence on the antileukemic activity of ibrutinib,"TMD8 cells; cobicistat 0.1, 1 or 10 μmol/L",neither ketoconazole nor cobicistat negatively influenced
same,Ka,[3],Ka (1/h)= 0.29
same,Clpo,[3]; oral clearance,Clpo (L/h) : 14
same,Vss,[3]; steady-state volume of distribution,0.46 L/kg
same,impact on ibrutinib's ability to suppress BTK signaling,BTK,did not impact
CC(=O)N1CCN(c2ccc(OCC3COC(Cn4ccnc4)(c4ccc(Cl)cc4Cl)O3)cc2)CC1 (stereo not shown) [Ketoconazole],influence on the antileukemic activity of ibrutinib,"TMD8 cells; ketoconazole 0.1, 1 or 10 μmol/L",neither ketoconazole nor cobicistat negatively influenced
